Consider 3 compounds from ChEMBL document CHEMBL5715954, “Silencing c-Myc translation as a therapeutic strategy through targeting PI3Kδ and CK1ε in hematological malignancies” (Blood, 2017).

Common to all, as to set-up: scale not given: the % may be the effect or the level left
Test [1] concerns the target CDK6/cyclin D1 (Homo sapiens) (UniProt P24385+Q00534). The experiment in a line: Inhibition of human CDK6/cyclin D1 assessed as enzyme activity at 1 uM using RB Protein as substrate preincubated for 20 mins followed by [gamma-33P]-ATP addition and measured after 120 mins by radiometric Hot-SpotSM Kinase assay relative to control. It counts as protein-complex assay.
Test [2] deals with T1, Megakaryocyte-associated tyrosine-protein kinase (Homo sapiens) (UniProt P42679).
T1 sequence (whole entry): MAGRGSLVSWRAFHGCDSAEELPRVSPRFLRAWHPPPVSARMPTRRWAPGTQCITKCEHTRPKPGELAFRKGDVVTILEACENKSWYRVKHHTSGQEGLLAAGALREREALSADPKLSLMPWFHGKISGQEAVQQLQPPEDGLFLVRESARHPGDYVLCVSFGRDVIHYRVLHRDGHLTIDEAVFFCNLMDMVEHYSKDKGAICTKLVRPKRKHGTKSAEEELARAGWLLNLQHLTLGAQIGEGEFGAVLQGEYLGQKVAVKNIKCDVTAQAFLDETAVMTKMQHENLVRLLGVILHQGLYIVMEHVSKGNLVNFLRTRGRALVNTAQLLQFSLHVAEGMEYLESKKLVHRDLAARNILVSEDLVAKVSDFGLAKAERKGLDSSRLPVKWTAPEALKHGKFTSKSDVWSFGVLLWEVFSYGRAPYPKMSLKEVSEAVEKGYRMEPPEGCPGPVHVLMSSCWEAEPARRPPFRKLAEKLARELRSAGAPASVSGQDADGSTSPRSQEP
The experiment in a line: Inhibition of human CTK/MATK assessed as enzyme activity at 1 uM using poly[Glu:Tyr] (4:1) as substrate preincubated for 20 mins followed by [gamma-33P]-ATP addition and measured after 120 mins by radiometric Hot-SpotSM Kinase assay relative to control.

The target in test [3] is T2, Serine/threonine-protein kinase LATS1 (Homo sapiens) (UniProt O95835).
T2 sequence (whole entry): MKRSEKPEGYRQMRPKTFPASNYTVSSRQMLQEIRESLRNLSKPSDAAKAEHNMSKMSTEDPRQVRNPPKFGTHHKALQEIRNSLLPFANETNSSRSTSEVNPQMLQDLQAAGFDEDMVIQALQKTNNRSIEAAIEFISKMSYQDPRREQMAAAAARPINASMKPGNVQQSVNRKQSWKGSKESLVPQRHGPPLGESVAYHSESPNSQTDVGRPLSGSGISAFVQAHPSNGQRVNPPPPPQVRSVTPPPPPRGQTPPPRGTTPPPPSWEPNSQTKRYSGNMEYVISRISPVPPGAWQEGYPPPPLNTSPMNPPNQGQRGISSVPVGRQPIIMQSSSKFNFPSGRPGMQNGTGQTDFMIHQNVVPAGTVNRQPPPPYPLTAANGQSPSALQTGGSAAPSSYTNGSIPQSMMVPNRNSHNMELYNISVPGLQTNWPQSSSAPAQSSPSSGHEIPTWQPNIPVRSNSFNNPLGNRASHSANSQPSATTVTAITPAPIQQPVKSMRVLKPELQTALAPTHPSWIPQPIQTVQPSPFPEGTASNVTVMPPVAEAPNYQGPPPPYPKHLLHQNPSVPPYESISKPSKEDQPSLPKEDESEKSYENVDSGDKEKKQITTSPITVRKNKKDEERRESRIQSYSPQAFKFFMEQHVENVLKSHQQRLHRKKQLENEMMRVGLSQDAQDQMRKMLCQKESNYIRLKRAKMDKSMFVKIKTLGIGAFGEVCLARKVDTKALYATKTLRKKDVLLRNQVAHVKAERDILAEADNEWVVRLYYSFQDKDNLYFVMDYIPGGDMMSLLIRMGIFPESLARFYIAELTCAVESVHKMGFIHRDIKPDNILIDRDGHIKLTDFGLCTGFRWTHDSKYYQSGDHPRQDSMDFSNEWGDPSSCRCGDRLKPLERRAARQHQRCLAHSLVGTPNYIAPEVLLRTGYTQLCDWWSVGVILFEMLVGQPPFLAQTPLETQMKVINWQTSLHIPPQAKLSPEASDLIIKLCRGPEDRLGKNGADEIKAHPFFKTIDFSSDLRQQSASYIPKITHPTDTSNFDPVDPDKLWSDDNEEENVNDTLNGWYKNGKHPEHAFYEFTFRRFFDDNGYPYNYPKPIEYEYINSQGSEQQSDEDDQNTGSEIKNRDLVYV
The experiment in a line: Inhibition of human LATS1 assessed as enzyme activity at 1 uM using KKRNRRLSVA as substrate preincubated for 20 mins followed by [gamma-33P]-ATP addition and measured after 120 mins by radiometric Hot-SpotSM Kinase assay relative to control.

Test [4] concerns the target T3, Serine/threonine-protein kinase ULK2 (Homo sapiens) (UniProt Q8IYT8).
T3 sequence (whole entry): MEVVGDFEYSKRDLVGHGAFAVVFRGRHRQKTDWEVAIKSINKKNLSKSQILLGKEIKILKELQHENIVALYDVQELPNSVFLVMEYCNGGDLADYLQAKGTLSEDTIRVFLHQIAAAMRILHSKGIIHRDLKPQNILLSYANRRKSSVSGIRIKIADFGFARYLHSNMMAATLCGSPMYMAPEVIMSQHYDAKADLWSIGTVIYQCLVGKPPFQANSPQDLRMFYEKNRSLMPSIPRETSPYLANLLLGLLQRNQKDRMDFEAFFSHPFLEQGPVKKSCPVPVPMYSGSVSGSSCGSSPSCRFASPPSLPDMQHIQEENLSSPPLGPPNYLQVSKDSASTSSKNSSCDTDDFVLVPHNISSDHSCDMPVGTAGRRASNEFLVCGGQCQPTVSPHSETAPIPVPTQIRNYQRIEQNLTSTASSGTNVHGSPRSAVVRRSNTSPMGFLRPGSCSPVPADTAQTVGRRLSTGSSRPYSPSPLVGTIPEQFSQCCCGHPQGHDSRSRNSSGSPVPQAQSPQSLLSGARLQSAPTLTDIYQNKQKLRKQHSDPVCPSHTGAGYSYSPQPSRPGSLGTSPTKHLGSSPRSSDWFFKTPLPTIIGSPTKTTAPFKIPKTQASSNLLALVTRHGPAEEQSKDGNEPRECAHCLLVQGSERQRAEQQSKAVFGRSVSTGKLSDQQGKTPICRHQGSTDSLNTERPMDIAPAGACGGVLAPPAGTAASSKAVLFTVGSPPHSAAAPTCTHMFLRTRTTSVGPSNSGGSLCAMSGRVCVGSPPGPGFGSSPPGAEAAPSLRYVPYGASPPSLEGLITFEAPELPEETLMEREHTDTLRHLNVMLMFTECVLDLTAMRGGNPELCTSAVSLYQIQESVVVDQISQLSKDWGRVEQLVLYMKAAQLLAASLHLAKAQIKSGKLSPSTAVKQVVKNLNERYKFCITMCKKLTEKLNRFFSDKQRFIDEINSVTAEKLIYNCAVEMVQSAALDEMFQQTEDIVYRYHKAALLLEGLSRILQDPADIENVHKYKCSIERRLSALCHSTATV
The experiment in a line: Inhibition of human ULK2 assessed as enzyme activity at 1 uM using myelin basic protein as substrate preincubated for 20 mins followed by [gamma-33P]-ATP addition and measured after 120 mins by radiometric Hot-SpotSM Kinase assay relative to control.

Turning to `C[C@H](Nc1ncnc2nc[nH]c12)c1cc2cccc(Cl)c2c(=O)n1-c1ccccc1`, the Activity in test [1] stood at 91.3%; in test [2], 105%; in test [3], 99.8%; in test [4] it was 98.4%.

For `CC[C@H](Nc1ncnc2[nH]cnc12)c1nc2cccc(F)c2c(=O)n1-c1ccccc1`, the Activity in test [1] is 94.6%; in test [2], 105%; in test [3] it was 95.4%; in test [4], 89.3%.

On to `CC(C)Oc1ccc(-c2nn([C@@H](C)c3oc4ccc(F)cc4c(=O)c3-c3cccc(F)c3)c3ncnc(N)c23)cc1F` [UMBRALISIB], for which the Activity in test [1] worked out at 89.2%; in test [2], 106%; in test [3], 96.3%; in test [4] it was 101%.
